Measurements reported in patent US11724992B2 (Novartis AG, priority 2017, dated 2023).

System: IL-1β production in PMA-differentiated THP-1 cells
Experiment: IL-1β production in PMA-differentiated THP-1 cells stimulated with gramicidin (hTHP-1 assay, 2% fetal bovine serum; Procedures 1-3)
Format: cell-based, human
Details: hTHP-1 assay containing 2% fetal bovine serum; class symbols; read-out: hTHP-1 IC50 (Average IC50 of compounds in hTHP-1 assay)
Description: The following protocol is suitable for testing the activity of the compounds disclosed herein.
Procedure 1: IL-1β Production in PMA-Differentiated THP-1 Cells Stimulated with Gramicidin
THP-1 cells were purchased from the American Type Culture Collection and sub-cultured according to instructions from the supplier. Cells were cultured in complete RPMI 1640 (containing 10% heat inactivated FBS, penicillin (100 units/ml) and streptomycin (100 μg/ml)), and maintained in log phase prior to experimental setup. Prior to the experiment, compounds were dissolved in dimethyl sulfoxide (DMSO) to generate a 30 mM stock. The compound stock was first pre-diluted in DMSO to 3, 0.34, 0.042 and 0.0083 mM intermediate concentrations and subsequently spotted using Echo550 liquid handler into an empty 384-well assay plate to achieve desired final concentration (e.g. 100, 33, 11, 3.7, 1.2, 0.41, 0.14, 0.046, 0.015, 0.0051, 0.0017 μM). DMSO was backfilled in the plate to achieve a final DMSO assay concentration of 0.37%. The plate was then sealed and stored at room temperature until required.
THP-1 cells were treated with PMA (Phorbol 12-myristate 13-acetate) (20 ng/ml) for 16-18 hours. On the day of the experiment the media was removed and adherent cells were detached with trypsin for 5 minutes. Cells were then harvested, washed with complete RPMI 1640, spun down, and resuspended in RPMI 1640 (containing 2% heat inactivated FBS, penicillin (100 units/ml) and streptomycin (100 μg/ml). The cells were plated in the 384-well assay plate containing the spotted compounds at a density of 50,000 cells/well (final assay volume 50 μl). Cells were incubated with compounds for 1 hour and then stimulated with gramicidin (5 μM) (Enzo) for 2 hours. Plates were then centrifuged at 340 g for 5 min. Cell free supernatant (40 μL) was collected using a 96-channel PlateMaster (Gilson) and the production of IL-1β was evaluated by HTRF (cisbio). The plates were incubated for 18 h at 4° C. and read using the preset HTRF program (donor emission at 620 nm, acceptor emission at 668 nm) of the SpectraMax i3x spectrophotometer (Molecular Devices, software SoftMax 6). A vehicle only control and a dose titration of CRID3 (100-0.0017 μM) were run concurrently with each experiment.
Procedure 2: IL-1β Production in PMA-Differentiated THP-1 Cells Stimulated with Gramicidin
THP-1 cells were purchased from the American Type Culture Collection and sub-cultured according to instructions from the supplier. Prior to experiments, cells were cultured in complete RPMI 1640 (containing 10% heat inactivated FBS, penicillin (100 units/ml) and streptomycin (100 μg/ml)), and maintained in log phase prior to experimental setup. Prior to the experiment THP-1 were treated with PMA (Phorbol 12-myristate 13-acetate) (20 ng/ml) for 16-18 hours. Compounds were dissolved in dimethyl sulfoxide (DMSO) to generate a 30 mM stock. On the day of the experiment the media was removed and adherent cells were detached with trypsin for 5 minutes. Cells were then harvested, washed with complete RPMI 1640, spun down, resuspended in RPMI 1640 (containing 2% heat inactivated FBS, penicillin (100 units/ml) and streptomycin (100 μg/ml). The cells were plated in a 384-well plate at a density of 50,000 cells/well (final assay volume 50 μl). Compounds were first dissolved in assay medium to obtain a 5× top concentration of 500 μM. 10 step dilutions (1:3) were then undertaken in assay medium containing 1.67% DMSO. 5× compound solutions were added to the culture medium to achieve desired final concentration (e.g. 100, 33, 11, 3.7, 1.2, 0.41, 0.14, 0.046, 0.015, 0.0051, […]). Final DMSO concentration was at 0.37%. Cells were incubated with compounds for 1 hour and then stimulated with gramicidin (5 μM) (Enzo) for 2 hours. Plates were then centrifuged at 340 g for 5 min. Cell free supernatant (40 μL) was collected using a 96-channel PlateMaster (Gilson) and the production of IL-1β was evaluated by HTRF (cisbio). […]

| IC50 | SMILES |
| --- | --- |
| 40 to 200 nM | CC(C)c1cc(C#N)cc(C(C)C)c1NC(=O)N=S(N)(=O)c1ncc(C(C)(C)O)s1 (single isomer, unassigned) [Example 130] |
| 1000 to 5000 nM | CC(C)c1cc(C#N)cc(C(C)C)c1NC(=O)N=S(N)(=O)c1ncc(C(C)(C)O)s1 (single isomer, unassigned) [Example 131] |
| 1000 to 5000 nM | CC(C)c1cc(OC(F)F)cc(C(C)C)c1NC(=O)N=S(N)(=O)c1ncc(C(C)(C)O)s1 (single isomer, unassigned) [Example 136] |
| 40 to 200 nM | CC(C)c1cc(OC(F)F)cc(C(C)C)c1NC(=O)N=S(N)(=O)c1ncc(C(C)(C)O)s1 (single isomer, unassigned) [Example 137] |
| 1000 to 5000 nM | CC(C)c1cc(F)cc(C(C)C)c1NC(=O)N=S(N)(=O)c1ncc(C(C)(C)O)s1 (single isomer, unassigned) [Example 138] |
| 40 to 200 nM | CC(C)c1cc(F)cc(C(C)C)c1NC(=O)N=S(N)(=O)c1ncc(C(C)(C)O)s1 (single isomer, unassigned) [Example 139] |
| 8 to 40 nM | CC(C)c1cc(F)cc(C(C)C)c1NC(=O)N=S(N)(=O)c1cc(C(C)(C)O)cs1 (single isomer, unassigned) [Example 140] |
| 1000 to 5000 nM | CC(C)c1cc(F)cc(C(C)C)c1NC(=O)N=S(N)(=O)c1cc(C(C)(C)O)cs1 (single isomer, unassigned) [Example 141] |
| 40 to 200 nM | CC(C)(O)c1ccc(S(N)(=O)=NC(=O)Nc2c3c(c(Cl)c4c2CCC4)CCC3)c(F)c1 (single isomer, unassigned) [Example 142] |
| 5000 to 30000 nM | CC(C)(O)c1ccc(S(N)(=O)=NC(=O)Nc2c3c(c(Cl)c4c2CCC4)CCC3)c(F)c1 (single isomer, unassigned) [Example 143] |
| 1000 to 5000 nM | CC(C)(O)c1ncc(S(N)(=O)=NC(=O)Nc2c3c(c(C#N)c4c2CCC4)CCC3)s1 (single isomer, unassigned) [Example 146] |
| 200 to 1000 nM | CC(C)(O)c1ncc(S(N)(=O)=NC(=O)Nc2c3c(c(C#N)c4c2CCC4)CCC3)s1 (single isomer, unassigned) [Example 147] |
| < 8 nM | Cc1oc(S(N)(=O)=NC(=O)Nc2c3c(c(F)c4c2CCC4)CCC3)cc1C(C)(C)O (single isomer, unassigned) [Example 148] |
| 200 to 1000 nM | Cc1oc(S(N)(=O)=NC(=O)Nc2c3c(c(F)c4c2CCC4)CCC3)cc1C(C)(C)O (single isomer, unassigned) [Example 149] |
| 5000 to 30000 nM | CC(C)(O)c1cccc(S(N)(=O)=NC(=O)Nc2c3c(cc4c2CCC4)CCC3)c1 (single isomer, unassigned) [Example 150] |
| 200 to 1000 nM | CC(C)(O)c1cccc(S(N)(=O)=NC(=O)Nc2c3c(cc4c2CCC4)CCC3)c1 (single isomer, unassigned) [Example 151] |
| 40 to 200 nM | CC(C)(O)c1ccc(S(N)(=O)=NC(=O)Nc2c3c(c(F)c4c2CCC4)CCC3)c(F)c1 (single isomer, unassigned) [Example 152] |
| 1000 to 5000 nM | CC(C)(O)c1ccc(S(N)(=O)=NC(=O)Nc2c3c(c(F)c4c2CCC4)CCC3)c(F)c1 (single isomer, unassigned) [Example 153] |
| 40 to 200 nM | CN(C)Cc1ccc(S(N)(=O)=NC(=O)Nc2c3c(cc4c2CCC4)CCC3)c(F)c1 (single isomer, unassigned) [Example 154] |
| 1000 to 5000 nM | CN(C)Cc1ccc(S(N)(=O)=NC(=O)Nc2c3c(cc4c2CCC4)CCC3)c(F)c1 (single isomer, unassigned) [Example 155] |
| 200 to 1000 nM | CC(C)c1cc(F)cc(C(C)C)c1NC(=O)N=S(N)(=O)c1ccc(C(C)(C)O)s1 (single isomer, unassigned) [Example 156] |
| 5000 to 30000 nM | CC(C)c1cc(F)cc(C(C)C)c1NC(=O)N=S(N)(=O)c1ccc(C(C)(C)O)s1 (single isomer, unassigned) [Example 157] |
| 1000 to 5000 nM | CC(C)(O)c1ccc(S(N)(=O)=NC(=O)Nc2c3c(c(F)c4c2CCC4)CCC3)c(Cl)c1 (single isomer, unassigned) [Example 158] |
